According to patent publication US20030109523A1, “Bicyclic antagonists selective for the alphavbeta3 integrin” (Wyeth, priority 1999, published 2003):
Counter-ions that a name gives are not always drawn. Like-named read-outs stand apart in the source and are kept apart here. Blank lines part the entries; values can stand above or below the molecule they belong to. Ends that are not written are not given here. Peptide text beside a SMILES is read from it.

How the values were obtained:
[1] = molecular target: T1, Vitronectin Receptor (αVβ3) (Homo sapiens, UniProt P05106+P06756); assay: Vitronectin Receptor (αVβ3) Binding Test Procedure
T1 construct: expressed in transfected cells; host or cells: 512P5 cells (plasma membrane preparation)
T1 sequence (P06756 31-889 limits assumed): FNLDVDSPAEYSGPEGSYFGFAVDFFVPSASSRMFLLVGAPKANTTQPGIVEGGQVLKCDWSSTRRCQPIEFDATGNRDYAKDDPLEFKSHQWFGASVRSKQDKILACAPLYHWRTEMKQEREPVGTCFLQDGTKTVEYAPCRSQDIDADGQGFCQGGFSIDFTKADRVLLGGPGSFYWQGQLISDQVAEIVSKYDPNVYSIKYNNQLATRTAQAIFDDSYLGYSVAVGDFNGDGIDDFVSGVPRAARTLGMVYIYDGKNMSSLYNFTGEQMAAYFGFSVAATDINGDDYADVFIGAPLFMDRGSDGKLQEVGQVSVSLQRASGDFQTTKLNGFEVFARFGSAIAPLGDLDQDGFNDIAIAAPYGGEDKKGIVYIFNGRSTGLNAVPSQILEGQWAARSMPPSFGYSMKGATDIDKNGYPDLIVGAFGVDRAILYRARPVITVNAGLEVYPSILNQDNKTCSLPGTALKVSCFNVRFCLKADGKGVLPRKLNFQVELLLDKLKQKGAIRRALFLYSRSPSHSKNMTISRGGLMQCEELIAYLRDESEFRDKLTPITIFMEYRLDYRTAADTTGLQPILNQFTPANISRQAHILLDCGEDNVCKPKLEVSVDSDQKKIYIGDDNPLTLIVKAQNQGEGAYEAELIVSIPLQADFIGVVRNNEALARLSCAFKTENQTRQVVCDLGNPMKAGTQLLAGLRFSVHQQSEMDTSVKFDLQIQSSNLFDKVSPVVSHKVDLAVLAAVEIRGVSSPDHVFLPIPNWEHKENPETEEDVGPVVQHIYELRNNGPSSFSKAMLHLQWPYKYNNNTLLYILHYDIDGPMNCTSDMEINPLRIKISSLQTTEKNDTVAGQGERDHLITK
T1 sequence (P06756 891-1048 partner limits assumed): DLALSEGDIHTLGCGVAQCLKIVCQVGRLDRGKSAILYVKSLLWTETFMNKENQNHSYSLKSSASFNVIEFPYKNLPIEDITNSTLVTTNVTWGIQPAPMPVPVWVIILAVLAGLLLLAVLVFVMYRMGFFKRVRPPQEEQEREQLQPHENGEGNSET
T1 sequence (P05106 27-788): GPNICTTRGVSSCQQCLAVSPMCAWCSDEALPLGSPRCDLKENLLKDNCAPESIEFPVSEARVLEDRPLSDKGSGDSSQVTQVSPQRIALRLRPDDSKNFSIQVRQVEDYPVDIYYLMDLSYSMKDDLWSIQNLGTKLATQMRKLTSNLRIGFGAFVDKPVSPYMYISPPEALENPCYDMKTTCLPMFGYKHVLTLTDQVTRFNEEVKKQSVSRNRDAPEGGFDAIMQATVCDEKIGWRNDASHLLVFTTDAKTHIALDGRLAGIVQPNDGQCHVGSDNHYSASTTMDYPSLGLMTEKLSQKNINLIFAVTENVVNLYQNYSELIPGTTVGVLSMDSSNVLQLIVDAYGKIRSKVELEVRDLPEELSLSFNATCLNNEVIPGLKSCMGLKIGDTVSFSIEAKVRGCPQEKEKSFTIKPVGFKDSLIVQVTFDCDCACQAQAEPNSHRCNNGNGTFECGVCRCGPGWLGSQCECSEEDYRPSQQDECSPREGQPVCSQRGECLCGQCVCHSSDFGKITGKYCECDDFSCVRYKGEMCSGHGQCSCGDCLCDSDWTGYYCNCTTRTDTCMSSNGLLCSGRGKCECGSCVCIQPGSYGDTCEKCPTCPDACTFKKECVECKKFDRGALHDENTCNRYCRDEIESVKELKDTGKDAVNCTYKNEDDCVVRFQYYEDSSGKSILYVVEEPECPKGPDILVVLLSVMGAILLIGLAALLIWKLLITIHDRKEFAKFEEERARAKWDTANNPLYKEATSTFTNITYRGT

[2] = molecular target: T2, αIIbβ3 integrin (Homo sapiens, UniProt P05106+P08514); assay: ADP-Induced Platelet Aggregation; format: cell-based; details: for ability to inhibit ADP induced platelet aggregation: reference peptides, at 200 μM; for remaining activity at 200 µM: percent of maximal aggregation; for IC50: ADP 20 uM, human platelets
T2 construct: Human Platelets: Platelet-enriched plasma was obtained commercially from a donor pool; from tissue; host or cells: human platelet-rich plasma from a commercial donor pool
T2 sequence (P08514 32-887 limits assumed): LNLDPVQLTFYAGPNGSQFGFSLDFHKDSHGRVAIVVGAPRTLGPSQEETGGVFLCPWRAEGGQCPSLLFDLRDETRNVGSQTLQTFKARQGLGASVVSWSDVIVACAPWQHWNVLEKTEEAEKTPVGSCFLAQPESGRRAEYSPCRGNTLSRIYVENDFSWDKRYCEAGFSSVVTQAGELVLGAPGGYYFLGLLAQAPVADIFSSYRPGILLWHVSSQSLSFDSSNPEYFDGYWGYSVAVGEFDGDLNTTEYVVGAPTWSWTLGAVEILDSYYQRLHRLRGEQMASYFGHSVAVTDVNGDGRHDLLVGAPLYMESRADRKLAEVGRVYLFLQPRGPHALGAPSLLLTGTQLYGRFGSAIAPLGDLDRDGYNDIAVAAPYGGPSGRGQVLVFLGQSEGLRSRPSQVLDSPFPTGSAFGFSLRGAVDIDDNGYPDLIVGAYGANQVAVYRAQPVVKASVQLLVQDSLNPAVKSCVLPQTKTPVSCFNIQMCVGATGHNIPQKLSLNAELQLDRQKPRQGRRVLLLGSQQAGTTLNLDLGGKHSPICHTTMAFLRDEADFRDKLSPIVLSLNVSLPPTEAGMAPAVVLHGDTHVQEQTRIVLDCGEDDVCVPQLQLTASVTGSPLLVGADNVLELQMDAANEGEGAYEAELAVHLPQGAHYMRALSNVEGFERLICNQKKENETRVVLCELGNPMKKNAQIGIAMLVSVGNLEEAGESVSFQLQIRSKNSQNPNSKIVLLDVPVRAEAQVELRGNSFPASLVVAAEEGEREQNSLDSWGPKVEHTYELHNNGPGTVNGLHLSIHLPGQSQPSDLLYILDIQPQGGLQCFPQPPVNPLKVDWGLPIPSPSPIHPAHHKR
T2 sequence (P08514 891-1039 partner limits assumed): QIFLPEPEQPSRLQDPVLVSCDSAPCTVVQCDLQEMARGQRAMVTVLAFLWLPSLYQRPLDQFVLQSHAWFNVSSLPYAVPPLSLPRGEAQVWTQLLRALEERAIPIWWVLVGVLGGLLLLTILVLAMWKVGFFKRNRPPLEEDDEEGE
T2 sequence (P05106 27-788): as the sequence (P05106 27-788) above
Method: Measurement of the Effect of Compounds on ADP-Induced Platelet Aggregation
Measuring the effect of compounds on ADP-induced platelet aggregation mediated by a fibrinogen-αIIbβ3 integrin interaction.
Human Platelets: Platelet-enriched plasma was obtained commercially from a donor pool. The plasma was tested prior to shipment and found to be negative for HIV, HCV and Hepatitis B. Platelet-rich plasma (PRP) was obtained by diluting plasma to an approximate final concentration of 3×10(6) platelets per mL in platelet poor plasma (PPP). PPP was the supernatant of a lowspeed centrifugation of plasma.
Adenosine diphosphate (ADP): ADP was obtained commercially and diluted to 1 mM (stock solution) in distilled, deionized water (ddH2O).
Incubation: PRP and PPP were prewarmed in a water bath at 37° C. […] PRP plus sample compound in a final volume of 500 uL was added to a pre-warmed cuvette in a ChronoLog aggregometer. A control containing PRP and 5 uL of vehicle was treated similarly to the test cuvette; final vehicle concentration was 1%. The two cuvettes were incubated with stirring (1000 rpm) at 37° C. for 5 minutes. Five hundred microliters of PPP was used as a reference (100% aggregation).
Aggregation: To begin the test, ADP was added yielding a final concentration of 20 uM to both samples (plus and minus sample compound). Light transmittance was monitored continuously and compared to the reference cuvette. After five minutes, the test was terminated and the slope and maximal amplitude of the resulting aggregation plot was calculated by the aggregometer.
The percent of maximal aggregation is the ratio of the maximal aggregations of the sample cuvette to the control multiplied by 100 (% Max) and reported as the mean+−standard deviation.

[3] = test system: osteoclasts; assay: Osteoclast Bone Pitting; format: cell-based, rat
Method: Osteoclast Bone Pitting The test procedure was conducted as described by R. J. Murrills and D. W. […] At this pH the adherent osteoclasts excavate an adequate number of resorption pits for assay purposes. Slices were fixed in 2.5% glutaraldehyde and osteoclasts counted following tartrate-resistant acid phosphatase staining. […] All cells were stripped from the slice by sonication on 0.25M NH4OH and the resorption pits formed by the osteoclasts during the experiment stained with toluidine blue. Resorption pits were quantified by manually counting. The experiments were conducted according to a block design with osteoclasts from each animal exposed to each treatment. Three replicate slices were used per treatment per animal, such that a total of 96 slices were examined for an experiment involving four animals and eight treatments (including control). Several parameters were recorded on a “per slice” basis: number of pits, number of osteoclasts, number of pits per osteoclast, number of fibroblast-like bone cells. SAS or JMP statistical software were used for statistical analysis. […] IC50s were calculated using dose-response curves.

[4] = molecular target: T3, αVβ3 integrin (Homo sapiens, UniProt P05106+P06756); assay: Osteopontin-αVβ3 Cell Attachment Test Procedure; format: cell-based; details: for remaining activity at 20 µM / remaining activity at 100 µM / (αVβ3) CELL ATTACHMENT, % @ concentration: % of maximal attachment; for remaining activity at 20 µM / remaining activity at 100 µM: read-out: (αVβ3) CELL ATTACHMENT, % @ concentration
T3 construct: αVβ3-expressing cell lines are maintained by standard tissue culture techniques; endogenous in cells; host or cells: αVβ3-expressing cell lines
T3 sequence (P06756 31-889 limits assumed): as the sequence (P06756 31-889 limits assumed) above
T3 sequence (P06756 891-1048 partner limits assumed): as the sequence (P06756 891-1048 partner limits assumed) above
T3 sequence (P05106 27-788): as the sequence (P05106 27-788) above
Method: Osteopontin-αVβ3 Cell Attachment Test Procedure
Measuring the effect of compounds on the RGD-dependent attachment of cells to osteopontin mediated by the αVβ3 integrin.
Following incubation the wells were aspirated and washed once with D-PBS; plates can either be used immediately or stored for up to 1 week at 4° C. Prior to assay, the wells were blocked with 1% bovine serum albumin (BSA) in cell suspension media for 1 hour at 37° C. Following the blocking period, wells were aspirated and washed once with D-PBS.
αVβ3-expressing cell lines are maintained by standard tissue culture techniques. […] The cells were pelleted by low-speed centrifugation and washed three times with 0.5 mg/mL trypsin inhibitor in D-PBS (Sigma). The final cell pellet was resuspended in cell suspension media at a concentration of 10^6 cells/mL.
Incubation: 100 μL of diluted test compound was added to osteopontin-coated wells (in triplicate) followed by 100 μL of cell suspension; background cell attachment was determined in uncoated wells. The plate was incubated at 25° C. in a humidified air atmosphere for 1.5 hours. Following the incubation period, the wells were gently aspirated and washed once with D-PBS.
Cell Number Detection: The number of cells attached was determined by an MTT dye conversion assay (Promega) according to the manufacturer's instructions. Briefly, MTT dye was diluted in cell suspension media (15:85) and 100 μL was added to each well. […] The assay plates were covered and incubated at 37° C. in a humidified air atmosphere overnight.
The individual well optical density was expressed as a percentage of the maximal attachment (% Max) wells minus background attachment, and reported as the mean ±standard deviation.

[5] = reference RGD peptides, 125I-Echistatin 50 pM, read-out: IC50
[6] = % Max = percentage of the specific binding, read-out: (αVβ3) RECEPTOR BINDING, % @ concentration
[7] = read-out: (αVβ3) IC50 RECEPTOR BINDING
[8] = attachment of cells to osteopontin, read-out: (αVβ3) IC50 CELL ATTACHMENT
[9] = Table VII, read-out: Platelet Aggregation αIIbβ3 IC50
[10] = reference compounds, Table VI, read-out: IC50 (95% Confidence Interval)

Molecule: GRGDNP [GRGDNP, reference compound]
IC50 [1, 5]: 0.237 µM
ability to inhibit ADP induced platelet aggregation ([2]; Table VI): Inactive at 200

Molecule: N=C(N)NCCCCOc1ccc2[nH]c(=O)c(CC(=O)O)cc2c1 [Example 238, [6-(4-Guanidino-butoxy)-2-oxo-1,2-dihydro-quinolin-3-yl]-acetic Acid Trifluoroacetic Acid Salt]
remaining activity at 30 µM [1, 6]: 100%
inhibition at 215 µM ([3]; Rattus norvegicus, Osteoclast, @ 215 μM): -20%
remaining activity at 200 µM ([2]; Table VII): 94%
remaining activity at 20 µM ([4]; @ 20 μM): 102%
remaining activity at 100 µM ([4]; @ 100 μM): 97.9%

Molecule: O=C(O)CC1CCc2cc(OCCCNC3=NCCCN3)ccc2C1 (centres unmarked) [Example 214, {6-[3-(1,4,5,6-Tetrahydro-pyrimidin-2-ylamino)-propoxy]-1,2,3,4-tetrahydro-naphthalen-2-yl}-acetic Acid]
IC50 [1, 7]: 0.42 µM
inhibition at 19 µM ([3]; Rattus norvegicus, Osteoclast, @ 19 μM): 19%
remaining activity at 200 µM ([2]; Table VII): 58%
IC50 [4, 8]: 0.479 µM

Molecule: COC(=O)CC1CCc2cc(OCCCNc3ncccn3)ccc2C1 (centres unmarked) [Example 212, {6-[3-(Pyrimidin-2-ylamino)-propoxy]-1,2,3,4-tetrahydro-naphthalen-2-yl}-acetic Acid Methyl Ester]
remaining activity at 3 µM ([1]; @ 3 μM, % Max = percentage of the specific binding, read-out: (αVβ3) RECEPTOR BINDING, % @ concentration): 98.7%
remaining activity at 10 µM ([1]; @ 10 μM, % Max = percentage of the specific binding, read-out: (αVβ3) RECEPTOR BINDING, % @ concentration): 98.3%
remaining activity at 30 µM [1, 6]: 102%
remaining activity at 100 µM [1, 6]: 99.3%

Molecule: N=C(N)NCCCCOc1ccc2c(c1)CCCC(CC(=O)O)C2 (centres unmarked) [Example 63, [2-(4-Guanidino-butoxy)-6,7,8,9-tetrahydro-5H-benzocyclohepten-6-yl]-acetic Acid Trifluoroacetate]
IC50 [1, 7]: 3.9 µM
remaining activity at 200 µM ([2]; Table VII): 51.5%
IC50 [4, 8]: 32.8 µM

Molecule: GRGESP [reference compound]
ability to inhibit αVβ3 binding ([1]; reference peptide, at 100 μm): inactive at 100 μm
ability to inhibit ADP induced platelet aggregation ([2]; Table VI): Inactive at 200

Molecule: Echistatin [reference compound]
IC50 [2, 10]: 0.0156 µM

Molecule: Calcitonin: anti-resorptive used in the clinic; reference compound of the bone pitting test is Rat Calcitonin (CGNLSTCMLGTYTQDLNKFHTFPQTSIGVGAP; ends and bridges not checked; cysteine pairing not given here; UniProt P01257 85-116, looked up) [reference compound]
osteoclast inhibitory activity in this test procedure ([3]; statement in words): significant osteoclast inhibitory activity

Molecule: N=C(N)NCCC[C@H](NC(=O)CN)C(=O)NCC(=O)N[C@@H](CC(=O)O)C(=O)N[C@@H](CO)C(=O)N1CCC[C@H]1C(=O)O [GRGDSP, reference compound]
ability to inhibit ADP induced platelet aggregation ([2]; Table VI): Inactive at 200

Molecule: GRGDTP [GRGDTP, reference compound]
IC50 [1, 5]: 0.49 µM
ability to inhibit ADP induced platelet aggregation ([2]; Table VI): Inactive at 200
IC50 [4]: 5.2 µM

Now from value to molecule, other results behind:

IC50 [1, 7]: 8.9 µM
IC50 [2, 9]: 107 µM
IC50 [4, 8]: 11.5 µM
Molecule: N=C(N)NCCCC#Cc1ccc2c(c1)NC(=O)C(CC(=O)O)C2 (centres unmarked) [Example 101, [7-(5-Guanidino-pent-1-ynyl)-2-oxo-1,2,3,4-tetrahydro-quinolin-3-yl]-acetic Acid Trifluoroacetate]
inhibition at 221 µM ([3]; Rattus norvegicus, Osteoclast, @ 221 μM): 51%

remaining activity at 200 µM ([2]; Table VII): 94.8%
remaining activity at 20 µM ([4]; @ 20 μM): 102%
remaining activity at 100 µM ([4]; @ 100 μM): 96.8%
Molecule: N=C(N)NCCOc1ccc2cc(CC(=O)O)c(=O)[nH]c2c1 [Example 185, [7-(2-Guanidino-ethoxy)-2-oxo-1,2-dihydro-quinolin-3-yl]-acetic Acid]
inhibition at 239 µM ([3]; Rattus norvegicus, Osteoclast, @ 239 μM): 58%

IC50 [1, 7]: 60 µM
Molecule: CCOC(=O)CC1CCc2cc(OCCCNC3=NCCCN3)ccc2C1 (centres unmarked) [Example 216, {6-[3-(1,4,5,6-Tetrahydro-pyrimidin-2-ylamino)-propoxy]-1,2,3,4-tetrahydro-naphthalen-2-yl}-acetic Acid Ethyl Ester, Acetic Acid Salt]
inhibition at 200 µM ([3]; Rattus norvegicus, Osteoclast, @ 200 μM): 95%

IC50 [1, 7]: 14.7 µM
remaining activity at 200 µM ([2]; Table VII): 98%
Molecule: Cc1ccc(S(=O)(=O)NC(=O)CC2CCc3cc(OCCCNC4=NCCCN4)ccc3C2)cc1 (centres unmarked) [Example 217, 4-Methyl-N-({6-[3-(1,4,5,6-tetrahydro-pyrimidin-2-ylamino)-propoxyl]1,2,3,4-tetrahydro-naphthalen-2-yl}-acetyl)-benzenesulfonamide, Trifluoroacetic Acid Salt]
inhibition at 1 µM ([3]; Rattus norvegicus, Osteoclast, @ 1 μM): 51%

remaining activity at 200 µM ([2]; Table VII): 90.3%
remaining activity at 100 µM ([4]; @ 100 μM): 100%
Molecule: N=C(N)NCCOc1ccc2c(c1)CC(CCC(=O)O)C(=O)N2 (centres unmarked) [Example 222, 3-[6-(2-Guanidino-ethoxy)-2-oxo-1,2,3,4-tetrahydro-quinolin-3-yl]-propionic Acid]
inhibition at 22 µM ([3]; Rattus norvegicus, Osteoclast, @ 22 μM): -58%

remaining activity at 100 µM [1, 6]: 54%
Molecule: O=C(O)CC1CCc2cc(OCCCNc3ncccn3)ccc2C1 (centres unmarked) [Example 213, {6-[3-(Pyrimidin-2-ylamino)-propoxy]-1,2,3,4-tetrahydro-naphthalen-2-yl}-acetic Acid]

remaining activity at 30 µM [1, 6]: 88%
IC50 [2, 9]: 160 µM
remaining activity at 100 µM ([4]; @ 100 μM): 100%
Molecule: CCOC(=O)CC1CCc2cc(OCCCNC(=N)N)ccc2C1 (centres unmarked) [Example 31, [6-(3-Guanidinopropoxy)-1,2,3,4-tetrahydro-napthalen-2-yl]-acetic Acid Ethyl Ester]

IC50 [2, 10]: 97.6 µM
Molecule: N=C(N)NCCC[C@H](N)C(=O)NCC(=O)N[C@@H](CC(=O)O)C(=O)N[C@@H](Cc1ccccc1)C(=O)O [RGDF, reference compound] (H-RGDF-OH; N-terminus and C-terminus assumed)

(αVβ3) CELL ATTACHMENT, % @ concentration ([4]; @ 20 μM): 102%@ 20
(αVβ3) CELL ATTACHMENT, % @ concentration ([4]; @ 100 μM): 84.2%@ 100
Molecule: [7-(2-Guanidino-ethoxy)-2-oxo-1,2-dihydro-quinolin-3-yl]propionic Acid Methyl Ester [Example 246]
BONE PITTING INHIBITION ([3]; @ 26.2 μM): 52%@ 26.2
